Results as given in PubChem BioAssay AID179 (DTP/NCI, 2004).
The source made the active and inactive calls.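 The calls were made as follows: active = compounds giving half or more protection of infected cells from virus-caused growth loss, again on retest; inactive = the rest.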 Where a SMILES comes first, the peptide text is derived from it. The star is where a group is joined. Boc = CC(C)(C)OC(=O)*

Test system: CEM cells HIV-1 protection, formazan growth assay
Experiment: NCI AIDS Antiviral Assay
Conditions: for IC50: measured here: growth of uninfected CEM cells
In short: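 Protection of CEM cells against HIV-1 measured as cell growth via soluble formazan read-out, with five concentrations tested on both infected and uninfected cells; failure to protect may reflect toxicity.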

Structure (SMILES)	EC50	IC50	outcome
O=C(O)c1ccccc1-c1c2ccc(=O)c(Br)c-2oc2c(Br)c(O)ccc12	> 200 µM	37.2 µM	–
CCc1cccc(CC)c1NC(=S)NC(=O)c1ccc(Br)cc1	> 18.2 µM	> 18.2 µM	–
CCOC(=O)CNC(=O)C(C)NC(=O)C(NC(=O)CC(c1ncc[nH]1)c1ncc[nH]1)C(C)CC (stereo not drawn)	> 100 µM	> 100 µM	–
CC1=CCCC2C(C=O)(C1)CC(C)C2(CO)CC/C(=C/CO)CO (stereo not drawn)	–	–	inactive
NC(=O)C1CC2(C1)CC(C(N)=O)C2 (stereo not drawn)	> 245 µM	> 245 µM	–
CCOc1ccc(NC(=O)C2=C(C)NC(C)=C(C(=O)Nc3ccc(OCC)cc3)C2c2ccc([N+](=O)[O-])cc2)cc1	> 12.9 µM	> 12.9 µM	–
COc1ccc(-n2c(N)c(C#N)c(C#N)c2-c2ccco2)cc1	> 200 µM	> 200 µM	–
O=C(O)Cc1cccc2c(=O)c3cccc([N+](=O)[O-])c3oc12	> 200 µM	> 200 µM	–
Oc1cccc(C2SCc3nc4ccccc4n32)c1 (stereo not drawn)	> 126 µM	46.8 µM	–
CCCCCCCCCCn1cccc1/C=C/c1ccc(/C=C/c2cccn2CCCCCCCCCC)cc1	–	–	inactive
CSC(SC)=C(C#N)C(=O)Nc1cccc(Cl)c1	> 200 µM	30.2 µM	–
COc1ccc(/C=C2\CN(C)Cc3c2nc(N)nc3-c2ccc(OC)cc2)cc1	> 18.6 µM	> 18.6 µM	–
CCCCC(C)(C/C=C/[C@@H]1[C@@H](C(O)CCCCCC(=O)OC)C(=O)C[C@H]1O[Si](C)(C)C(C)(C)C)O[Si](C)(C)C (stereo partly drawn)	–	–	inactive
Cc1ccc(NC(=O)C2C(=O)N(c3ccc(C)c(C)c3)C(=O)/C2=N/O)cc1C (stereo not drawn)	> 19.1 µM	> 19.1 µM	–
CCO[C@@H]1OC(=O)[C@H]2C(c3ccc(Cl)cc3)=NO[C@@H]12	> 35.5 µM	> 35.5 µM	–
CCCCCCCCCC(=O)NC(Cc1ccc(O)cc1)C(=O)NCCCNCCCCNCCCNC(=O)[C@@H](N)CCCN=C(N)N (stereo partly drawn)	> 69.2 µM	58.9 µM	–
CNC(=O)C1CCC(=O)N1CN(C(C)=O)c1ccccc1 (stereo not drawn)	> 200 µM	> 200 µM	–
C=CC[P@]1(=O)O[C@H](c2ccccc2)[C@H](C)N1C	–	–	inactive
NC1=Nc2cc(C(F)(F)F)ccc2Sc2nc3ccccc3n21	> 200 µM	–	–
O=c1onc2c3ccccc3ncn12	> 200 µM	> 200 µM	–
Cc1cc(N(CCC#N)CCC#N)ccc1/C=C(\NC(=O)/C=C/c1ccccc1)NC(=O)Nc1ccc(Cl)cc1	–	–	inactive

Structure (SMILES)	EC50	IC50	outcome
CC(CCC(=O)O)CCC(=O)O	> 1450 µM	> 1450 µM	–
NC(=S)N/N=C/C(O[C@@H](/C=N/NC(N)=S)CO)n1cnc2c(N)ncnc21 (stereo partly drawn)	> 437 µM	89.1 µM	–
COc1ccc(/C=c2\sc3n(c2=O)C(N)=C(C#N)C(c2ccc(OC)cc2)C=3c2nc3ccccc3[nH]2)cc1 (stereo not drawn)	> 7.08 µM	> 7.08 µM	–
CCCCCCCCCCCCCCCC(=O)Nc1ccn(C2CCC(COP(=O)(O)OCC3OC(n4ccc(NC(=O)CCCCCCCCCCCCCCC)nc4=O)CC3OP(=O)(O)OCC3OC(n4cc(C)c(=O)[nH]c4=O)CC3N=[N+]=[N-])O2)c(=O)n1 (stereo not drawn)	0.0282 µM	15.1 µM	–
CC(=O)NC(CCCOC(C)=O)C(=O)NC(CCCOC(C)=O)C(=O)NC(CCCOC(C)=O)C(=O)NC(Cc1ccc([N+](=O)[O-])cc1)C(=O)NCC(=O)OCc1ccccc1 (stereo not drawn)	> 200 µM	> 200 µM	–
CC1(C)C2CCC13CS(=O)(=O)N(C(=O)[C@H]1CC=CCC1)C3C2 (stereo partly drawn)	> 112 µM	> 112 µM	–
NCC(SSC(CN)C(=O)O)C(=O)O (stereo not drawn)	> 200 µM	> 200 µM	–
CCCC/C=C(/CCCNC=O)[Si](C)(C)C	> 537 µM	> 537 µM	–
Cn1cc(NC(=O)c2nc(NC(=O)c3nc(NC(=O)c4ccc(C(=O)Nc5cn(C)c(C(=O)Nc6cn(C)c(C(=O)Nc7cn(C)c(C(=O)NCCC(=N)N)n7)n6)n5)nc4)cn3C)cn2C)nc1C(=O)NCCC(=N)N	> 50.1 µM	1.17 µM	–
O=C(NCCCN1CCN(CCCNC(=O)c2cnc3ccccc3n2)CC1)c1cnc2ccccc2n1	> 10 µM	> 10 µM	–
O=C1C2CCCCC2C(=O)N1n1c(Cc2ccccc2)n[nH]c1=O (stereo not drawn)	> 200 µM	> 200 µM	–
O=C(O)c1cc(N=Nc2ccc(/C=C/c3ccc(N=Nc4cc(C(=O)O)c(O)c5ccccc45)cc3S(=O)(=O)O)c(S(=O)(=O)O)c2)c2ccccc2c1O	46.8 µM	72.4 µM	–
CN1C(=O)c2ccccc2Cc2c(NCc3ccccc3)ncnc21	> 89.1 µM	19.1 µM	–
O=[N+]([O-])c1ccc(C2=NOC(c3ccc(Cl)cc3)N2C23CC4CC(CC(C4)C2)C3)cc1 (stereo not drawn)	> 200 µM	182 µM	–
CCN1C(=O)C(N=[N+]=[N-])(c2ccccc2)C(=O)c2ccccc21 (stereo not drawn)	> 200 µM	> 200 µM	–
CCC12CCCN(Cc3ccccc3)C1c1c(n(C)c3ccccc13)C(CO)C2 (stereo not drawn)	> 25.7 µM	> 25.7 µM	–
COC1=C(C)C(=O)c2c(c(COC(N)=O)c3n2CC(OC(C)=O)C3OC(C)=O)C1=O (stereo not drawn)	> 2 µM	0.178 µM	–
CN(NC(=O)c1ccc(Cl)cc1)C1=NCCCCN1	> 200 µM	> 200 µM	–
O=c1[nH]c2cc(O)ccc2c2cc3c(c(O)c12)OCO3	–	–	inactive
NC(=S)N/N=C1\CCCC\C1=C/c1ccccc1	> 138 µM	112 µM	–
CCc1cccc(C)c1NC(=O)CC1C(=O)Nc2ccccc2S1=O (stereo not drawn)	–	–	inactive

Structure (SMILES)	EC50	IC50	outcome
COc1cccc(/C=N\NC(=O)C(C)SC(C)C(=O)N/N=C/c2cccc(OC)c2)c1 (stereo not drawn)	–	–	inactive
CSCCC(NC(=O)C(CC(C)C)NC(=O)CNC(=O)OC(C)(C)C)C(=O)N(C)C (stereo not drawn) (Boc-Gly-Leu-Met-NMe2; configuration not given here)	> 200 µM	> 200 µM	–
CC(=O)CCCCn1c(=O)c2c(ncn2C)n(C)c1=O	> 891 µM	> 891 µM	–
COc1cc2c(cc1-c1coc3cc(OCC=C(C)C)ccc3c1=O)OCO2	> 200 µM	7.08 µM	–
COc1ccccc1CNCc1nc2ccccc2[nH]1	> 200 µM	155 µM	–
CCOC1=C(c2ccccc2)Oc2cccnc2-n2cccc21	> 200 µM	138 µM	–
COC(=O)C1=CO[C@@H](C)[C@H]2CN3CC[C@]4(C(=O)Nc5ccccc54)[C@@H]3C[C@H]12	> 200 µM	> 200 µM	–
COc1cc2c(c3oc(=O)c4c(c13)CCC4=O)[C@@H]1C=CO[C@@H]1O2	> 100 µM	69.2 µM	–
O=C(OCc1ccccc1)c1ccccc1-c1c2ccc(=O)cc-2oc2cc(OCc3ccccc3)ccc12	> 5.13 µM	> 5.13 µM	–
Cc1cc(-c2ccc(C(=O)C(c3ccccc3)(c3ccccc3)c3ccccc3)[nH]2)on1	> 200 µM	18.6 µM	–
OCC1NCC(O)C(O)C1O (stereo not drawn)	> 200 µM	> 200 µM	–
Cc1cc(C)nc(NS(=O)(=O)c2ccc(Nc3c4ccccc4nc4c(C(=O)Nc5ccc(S(=O)(=O)Nc6cc(C)on6)cc5)cccc34)cc2)n1	> 35.5 µM	> 35.5 µM	–
COc1ccccc1NC(=O)C(/C=N/C(N)=S)=C(\C)O	> 200 µM	> 200 µM	–
Oc1[nH]c2ccccc2c1N=Nc1nc(-c2ccc(Cl)c(Cl)c2)cs1	> 200 µM	40.7 µM	–
O=C1CC(c2ccco2)C2(C(=O)CCCC2=O)C(c2ccco2)C1 (stereo not drawn)	> 100 µM	> 100 µM	–
O=C(N/C(=C\c1ccc2c(c1)OCO2)c1nc2ccccc2[nH]1)c1ccccc1	> 26.3 µM	> 26.3 µM	–
CC/C(Cl)=N\OC(=O)NCc1ccc(F)cc1	> 20 µM	4.47 µM	–
N#Cc1c(Br)n(C2OC(CO)C(O)C2O)c2ncn3ccnc3c12 (stereo not drawn)	> 200 µM	> 200 µM	–
OCC1C(O)C(O)[C@@H]2SCCN12 (stereo partly drawn)	> 200 µM	> 200 µM	–
O=C(c1c2c(cc3c1CC1(Cc4cc5c(cc4C1)CCCC5)C3)CCCC2)C(Br)Br	> 100 µM	4.9 µM	–
c1cnn([B-]2(n3cccn3)n3ccc[n+]3[B-](n3cccn3)(n3cccn3)n3ccc[n+]32)c1	> 200 µM	> 200 µM	–

Structure (SMILES)	EC50	IC50	outcome
c1ccc(NNCC[P+](c2ccccc2)(c2ccccc2)c2ccccc2)cc1	> 200 µM	2.88 µM	–
O=C(c1ccc(Cl)cc1)c1ccc(N=[N+]([O-])c2ccc(C(=O)c3ccc(Cl)cc3)cc2)cc1	> 100 µM	> 100 µM	–
O=C(O)c1c2c(cc3c(=O)cc(-c4ccccc4)oc13)CCCC2	–	–	inactive
Cc1c(CCC(C)C)oc2cc3oc(CCC(C)C)c(C)c3cc12	> 70.8 µM	> 70.8 µM	–
CCC=C(c1cc(Cl)c(OC)c(C(=O)OC)c1)c1cc(Cl)c(OC)c(C(=O)OC)c1	> 8.32 µM	> 8.32 µM	–
Cc1cc(NS(=O)(=O)c2ccc(N)cc2)no1	> 200 µM	> 200 µM	–
C/C(O)=C(\N=O)C(=O)NCc1ccccc1	> 1120 µM	> 1120 µM	–
O=C(Cc1ccccc1CCO)NCCc1ccccc1	> 200 µM	> 200 µM	–
CC(C)(C)CC(C)(C)c1ccc(O)c(SSc2cc(C(C)(C)CC(C)(C)C)ccc2O)c1	> 200 µM	25.7 µM	–
CCOP(=O)(CCn1cnc2c(N)ncnc21)OCC	178 µM	437 µM	–
COc1ccc(-c2c(C3=NCCN3)nnn2-c2ccccc2)cc1	> 295 µM	> 295 µM	–
Cn1c(SCc2ccc(F)cc2)nnc1C12CC3CC(CC(C3)C1)C2	> 200 µM	105 µM	–
Oc1ccc(C23CC4CC(CC(C4)C2)C3)cc1	–	–	inactive
C#CCC(N)(CO)C(=O)O (stereo not drawn)	–	–	inactive
Cn1c(=O)c2c(nc3n2CC(=O)N3CCCCl)n(C)c1=O	85.1 µM	> 200 µM	–
CCCCCC=C(c1cc(Br)cc(C(=O)O)c1O)c1cc(Br)cc(C(=O)O)c1O	> 166 µM	15.8 µM	–
CCOc1ccc(N=Cc2c3ccccc3nc3ccccc23)cc1	–	–	inactive
Cc1ccc2c(c1)S(=O)(=O)N(C)C(c1ccccc1)=C2	> 18.2 µM	> 18.2 µM	–
O=P(O)(O)CC1OC(CO)C(O)C1O (stereo not drawn)	> 200 µM	> 200 µM	–
O=C(Nc1ccc(Cl)cc1)c1cc(S(=O)(=O)NC2=NC(c3ccccc3)c3cc(Cl)ccc3N2)c(SSc2cc(Cl)c(C(=O)Nc3ccc(Cl)cc3)cc2S(=O)(=O)NC2=NC(c3ccccc3)c3cc(Cl)ccc3N2)cc1Cl (stereo not drawn)	> 200 µM	> 200 µM	–
